Data taken from patent publication US12152048B2, “Nitroxoline prodrug and use thereof” (Jiangsu Yahong Meditech Co., Ltd., priority 2018, dated 2024).
In brackets after ≈: the same amount, converted by molar mass.

How the values were obtained:
[1] = Stability in human liver microsome; details: 2 μM, 37° C., 30 minutes
Description: (§1) Experimental instruments: thermostatic shaker (SHA-B, Guohua Electric Appliance Co., Ltd.); centrifuge (5810R, Eppendorf); mass spectrometry (API4000, Applied Biosystems, USA); liquid chromatography (LC-30AD, Shimadzu); sample injector (CTC Analytics AG System, CTC).
(§2) Experimental process: 25 μg/mL alamethicin (Aldrich), 5 mM magnesium chloride and 0.5 mg/mL microsome (XENOTECH) were added to 100 mM phosphate buffer to obtain a coenzyme-free reaction solution. A portion of the coenzyme-free reaction solution was added with 1 mM reductive nicotinamide adenine dinucleotide phosphate (Aldrich) and 5 mM uridine diphosphate glucuronic acid (Aldrich) to obtain a coenzyme-containing reaction solution. The working solution of the compound of the present invention was added to the two reaction solutions so that the final concentration of the compound was 2 μM. Immediately after mixing well, 50 μL of the solution were taken out as the 0 minute sample, and 50 μL of the remaining sample were taken out after incubating at 37° C. for 30 minutes. All the samples taken out were immediately processed to precipitate protein, and centrifuged to obtain a supernate for the determination of the compound concentration by LC/MS/MS.

[2] = Stability in plasma, overall conclusion (species not stated); details: conclusion in words
[3] = Stability in rat plasma
[4] = Stability in human plasma
Description: (§3) Experimental instruments: thermostatic shaker (SHA-B, Guohua Electric Appliance Co., Ltd.); centrifuge (5810R, Eppendorf); mass spectrometry (AP4000, Applied Biosystems, USA); liquid chromatography (LC-30AD, Shimadzu); sample injector (CTC Analytics AG System, CTC).
(§4) Test animals: plasma of human (batch number: BRH1343165), rat (batch number: RAT336728), mouse (batch number: MSE280000), dog (batch number: BGL99137) and monkey (batch number: PH-Monkey-20180821) are purchased from Shanghai Sixin Biological Technology Co., Ltd.
(§5) Experimental process: the compound of the present invention was dissolved in an organic solvent to obtain a 1 mM working solution. 3 μL of the working solution were added to 597 μL of pre-incubated human or rat plasma and mixed well. 50 μL of the solution were immediately taken out as the 0 minute sample. The remaining sample was incubated at 37° C., and 50 μL of sample were taken out at 15, 30, 60 and 120 minutes respectively. All the samples taken out were immediately processed to precipitate protein, and centrifuged to obtain a supermate for the determination of the compound concentration by LC/MS/MS.

[5] = Stability in rat liver microsome; details: 2 μM, 37° C., 30 minutes
Description: as §1, §2

[6] = Stability in mouse liver microsome; type: in vitro ADME; details: 2 μM, 37° C., 30 minutes
[7] = Stability in dog plasma; type: in vitro ADME
Description: as §3, §4, §5

[8] = Stability in dog liver microsome; details: 2 μM, 37° C., 30 minutes
[9] = Determination of water solubility in phosphate buffer; type: physicochemical; details: for solubility at 24 h: thermodynamic from solid
Description: Experimental instruments: 96-well filter plate (MSHVN4510 or MSHVN4550, Millipore); electronic digital display vortex mixer (MS3 Digital, IKA); multi-purpose vacuum pump (circulating water type, SHB-111, Zhengzhou Greatwall Scientific Industrial and Trade Co., Ltd.); balance (XSLT05, Mettler-Toledo); comfortable mixer (Eppendorf AG 22331 Hamburg, Eppendorf); liquid chromatography (LC-3AD, Shimadzu); mass spectrometry (API4000, Applied Biosystems, USA); sample injector (Anylytics AG System, CTC). Nitroxoline was prepared according to the method disclosed in Journal of Heterocyclic Chemistry, 1971, vol. 8, p 821 by Wisdom Pharmaceutical Co., Ltd.
Experimental process: 500 μL of phosphate buffer (pH=1.2, 4.5, 6.8 or 7.4) were added to a glass flask, to which 2 mg of compound powder were added. The flask was sealed with a cap and shaked on a mixer (VORTEX-GENIE2) at room temperature for 24 hours. The solution was subjected to vacuum filtration, and the filtrate was processed to determine the compound concentration by LC/MS/MS.

[10] = aqueous buffer, phosphate buffer pH 7.4, room temperature

Row | SMILES | Percentage of the compound remaining in human liver microsome ([1]; with coenzyme) | Percentage of the compound remaining in human liver microsome ([1]; without coenzyme) | stability in plasma [2] | Percentage of the compound remaining in plasma ([3]; 0 minute) | Percentage of the compound remaining in plasma ([3]; 37° C., 15 minutes) | Percentage of the compound remaining in plasma ([3]; 37° C., 30 minutes) | Percentage of the compound remaining in plasma ([3]; 37° C., 60 minutes) | Percentage of the compound remaining in plasma ([3]; 37° C., 120 minutes) | Percentage of the compound remaining in plasma ([4]; 0 minute) | Percentage of the compound remaining in plasma ([4]; 37° C., 15 minutes) | Percentage of the compound remaining in plasma ([4]; 37° C., 30 minutes) | Percentage of the compound remaining in plasma ([4]; 37° C., 60 minutes) | Percentage of the compound remaining in plasma ([4]; 37° C., 120 minutes) | Percentage of the compound remaining in rat liver microsome ([5]; with coenzyme) | Percentage of the compound remaining in rat liver microsome ([5]; without coenzyme) | Percentage of the compound remaining in mouse liver microsome ([6]; with coenzyme) | Percentage of the compound remaining in mouse liver microsome ([6]; without coenzyme) | Percentage of the compound remaining in dog liver microsome ([8]; with coenzyme) | Percentage of the compound remaining in dog liver microsome ([8]; without coenzyme) | solubility at 24 h [9, 10] | also measured
1 | CC(C)OC(=O)[C@H](C)NP(=O)(OCOc1ccc([N+](=O)[O-])c2cccnc12)Oc1ccccc1 (stereo partly shown) [Compound 75] | 1.64% | 6.45% | high stability | 100.0% | 0.0% | 0.0% | 0.0% | 0.0% | 100.0% | 98.5% | 94.0% | 87.2% | 65.5% | 0.00% | 0.02% |  |  | 12.95% | 48.90% |  | Percentage of the compound remaining in plasma ([7]; 0 minute): 100.0%; Percentage of the compound remaining in plasma ([7]; 37° C., 15 minutes): 98.3%; Percentage of the compound remaining in plasma ([7]; 37° C., 30 minutes): 95.6%; Percentage of the compound remaining in plasma ([7]; 37° C., 60 minutes): 80.8%; Percentage of the compound remaining in plasma ([7]; 37° C., 120 minutes): 67.8%
2 | CC(C)(C)OP(=O)(OCOc1ccc([N+](=O)[O-])c2cccnc12)OC(C)(C)C [Compound 70, di-tert-butyl (5-nitroquinolin-8-yloxy)methyl phosphate] | 91.20% | 91.76% | high stability | 100.0% | 93.4% | 80.7% | 84.1% | 72.9% | 100.0% | 85.6% | 89.0% | 75.2% | 74.4% | 94.34% | 96.79% |  |  | 91.42% | 90.90% | 998 µg/mL | solubility at 24 h ([9]; aqueous buffer, phosphate buffer pH 4.5, room temperature): 843 µg/mL; solubility at 24 h ([9]; aqueous buffer, phosphate buffer pH 6.8, room temperature): 940 µg/mL; water solubility compared with nitroxoline ([9]; conclusion in words): increased by several times; solubility at 24 h ([9]; simulated gastric fluid, phosphate buffer pH 1.2, room temperature): 639 µg/mL
3 | COC(=O)CN(C)C(=O)Oc1ccc([N+](=O)[O-])c2cccnc12 [Compound 57, methyl 2-(methyl((5-nitroquinolin-8-yloxy)formyl)amino)acetate] | 0.16% | 0.15% | high stability | 100.0% | 0.1% | 0.0% | 0.0% | 0.0% | 100.0% | 99.8% | 93.0% | 76.2% | 60.2% | 23.06% | 44.33% | 5.57% | 76.69% | 0.03% | 75.50% | 138 µg/mL (≈ 432 µM) | 

Now from value to compound, other results behind:

Row | Percentage of the compound remaining in human liver microsome ([1]; with coenzyme) | Percentage of the compound remaining in human liver microsome ([1]; without coenzyme) | stability in plasma [2] | Percentage of the compound remaining in plasma ([3]; 0 minute) | Percentage of the compound remaining in plasma ([3]; 37° C., 15 minutes) | Percentage of the compound remaining in plasma ([3]; 37° C., 30 minutes) | Percentage of the compound remaining in plasma ([3]; 37° C., 60 minutes) | Percentage of the compound remaining in plasma ([3]; 37° C., 120 minutes) | Percentage of the compound remaining in plasma ([4]; 0 minute) | Percentage of the compound remaining in plasma ([4]; 37° C., 15 minutes) | Percentage of the compound remaining in plasma ([4]; 37° C., 30 minutes) | Percentage of the compound remaining in plasma ([4]; 37° C., 60 minutes) | Percentage of the compound remaining in plasma ([4]; 37° C., 120 minutes) | Percentage of the compound remaining in rat liver microsome ([5]; with coenzyme) | Percentage of the compound remaining in rat liver microsome ([5]; without coenzyme) | Percentage of the compound remaining in mouse liver microsome ([6]; with coenzyme) | Percentage of the compound remaining in mouse liver microsome ([6]; without coenzyme) | Percentage of the compound remaining in dog liver microsome ([8]; with coenzyme) | Percentage of the compound remaining in dog liver microsome ([8]; without coenzyme) | solubility at 24 h [9, 10] | SMILES | also measured
4 | 31.49% | 29.40% | high stability | 100.0% | 0.0% | 0.0% | 0.0% | 0.0% | 100.0% | 108.6% | 103.3% | 93.4% | 71.9% | 10.77% | 13.97% | 9.85% | 31.90% | 61.38% | 70.31% | 24.4 µg/mL (≈ 67.3 µM) | CCC(NC(=O)OCOc1ccc([N+](=O)[O-])c2cccnc12)C(=O)OC (stereo not shown) [Compound 54, methyl 2-(((5-nitroquinolin-8-yloxy)methoxy)formamido)butanoate] | Percentage of the compound remaining in plasma ([7]; 0 minute): 100.0%; Percentage of the compound remaining in plasma ([7]; 37° C., 15 minutes): 100.3%; Percentage of the compound remaining in plasma ([7]; 37° C., 30 minutes): 99.2%; Percentage of the compound remaining in plasma ([7]; 37° C., 60 minutes): 92.4%; Percentage of the compound remaining in plasma ([7]; 37° C., 120 minutes): 74.7%
5 | 0.12% | 71.66% | high stability | 100.0% | 2.8% | 0.1% | 0.0% | 0.0% | 100.0% | 98.9% | 98.2% | 103.6% | 93.2% | 0.45% | 62.17% | 0.44% | 103.05% | 14.94% | 118.35% | 39.8 µg/mL (≈ 98.2 µM) | CCC(C)C(C(=O)OC)N(C)C(=O)OCOc1ccc([N+](=O)[O-])c2cccnc12 (stereo not shown) [Compound 56, methyl 3-methyl-2-(methyl(((5-nitroquinolin-8-yloxy)methoxy)formyl)amino)pentanoate] | 
